Reference: patent US11174250B2, “Substituted carboxamides as inhibitors of WDR5 protein-protein binding” (PROPELLON THERAPEUTICS INC., priority 2016, dated 2021)
Read-outs that look alike come from different tables or passages of the source.

Target: WDR5 protein (Homo sapiens (Human), UniProt P61964)
Test: Surface Plasmon Resonance (SPR) assay
Type: binding
Conditions: for residence time: τ=1/koff, read-out: Residence Time (t, min)
[1] = SPR, Table 1, read-out: WDR5 binding affinity (KD)
[2] = SPR, Table 2, read-out: WDR5 binding affinity SPR (KD)

Procedure: Exemplary compounds of the application were dissolved in 100% DMSO at 10 mM, assayed fresh, and then stored at −20° C. for repeat studies and other experiments. Full length WDR5 with an N-terminal His tag and C-terminal AviTag (Avidity Inc.) was expressed in E. coli with coexpression of BirA to biotin label the protein in vivo. Purification was via Ni-NTA. The purified WDR5 protein has a molecular weight of 41976 Da.
SPR studies were performed using a Biacore™ T200 instrument (GE Health Sciences Inc.). Biotinylated WDR5 protein (approximately 3000RU) was stably captured to streptavidin coupled SA chips according to the manufacture's protocol (GE Health Sciences Inc.). The running buffer used was HBS-EP (20 mM Hepes pH 7.4, 150 mM NaCl, 3 mM EDTA, 0.05% P-20) plus 5% DMSO with a flow rate of 40p1/min. For SPR analysis, 5 different concentrations of each exemplary compound of the application were sprayed into 96 or 384 well plates using an HP D300 digital dispenser. […] Curve fitting and KD calculations were performed with the Biacore T200 Evaluation software (GE Health Sciences Inc).

Compound	Kd [1]	Kd [2]	residence time (SPR)	Kd
C[C@@H]1CN(c2ccc(-c3ccc(F)c(CNC4CCCCC4)c3F)cc2NC(=O)c2c[nH]c(=O)cc2C(F)(F)F)C[C@H](C)N1C [Example 83, N-(3′-((cyclohexylamino)methyl)-2′,4′-difluoro-4-((3S,5R)-3,4,5-trimethylpiperazin-1-yl)-[1,1′-biphenyl]-3-yl)-6-oxo-4-(trifluoromethyl)-1,6-dihydropyridine-3-carboxamide]	10 nM	10.3 nM	3.24 min	
CN1CCN(c2ncc(-c3cc(CNC4CCCCC4)ccc3F)cc2NC(=O)c2c[nH]c(=O)cc2C(F)(F)F)CC1 [Example 85, N-(5-(5-((cyclohexylamino)methyl)-2-fluorophenyl)-2-(4-methylpiperazin-1-yl)pyridin-3-yl)-6-oxo-4-(trifluoromethyl)-1,6-dihydropyridine-3-carboxamide]	15 nM	14.8 nM	0.78 min	
CN1CCN(c2ccc(-c3cc(CN4CCOCC4)ccc3Cl)cc2NC(=O)c2c[nH]c(=O)cc2C(F)(F)F)CC1 [Example 86, N-(2′-chloro-4-(4-methylpiperazin-1-yl)-5′-(morpholinomethyl)-[1,1′-biphenyl]-3-yl)-6-oxo-4-(trifluoromethyl)-1,6-dihydropyridine-3-carboxamide]	35 nM	34.5 nM		
CN1CCCN(c2ccc(-c3cc(CN4CCOCC4)ccc3F)cc2NC(=O)c2c[nH]c(=O)cc2C(F)(F)F)CC1 [Example 88, N-(2′-fluoro-4-(4-methyl-1,4-diazepan-1-yl)-5′-(morpholinomethyl)-[1,1′-biphenyl]-3-yl)-6-oxo-4-(trifluoromethyl)-1,6-dihydropyridine-3-carboxamide]	18 nM	18 nM	1.71 min	
CN1CCCN(c2ccc(-c3cc(CN4CCOCC4)ccc3F)cc2NC(=O)c2cn(C)c(=O)cc2C(F)(F)F)CC1 [Example 89, N-(2′-fluoro-4-(4-methyl-1,4-diazepan-1-yl)-5′-(morpholinomethyl)-[1,1′-biphenyl]-3-yl)-1-methyl-6-oxo-4-(trifluoromethyl)-1,6-dihydropyridine-3-carboxamide]	235 nM	235 nM	0.07 min	
Cc1cc(C(=O)Nc2cc(-c3cc(CN4CCOCC4)ccc3F)ccc2N2CCC(N(C)C)C2)cc(C)c1F (stereo not drawn) [Example 91, N-(4-(3-(dimethylamino)pyrrolidin-1-yl)-2′-fluoro-5′-(morpholinomethyl)-[1,1′-biphenyl]-3-yl)-4-fluoro-3,5-dimethylbenzamide]	316 nM	316 nM		
Cc1cc(C(=O)Nc2cc(-c3cc(CN4CCOCC4)ccc3F)ccc2N2CCCN(C)CC2)cc(C)c1F [Example 92, 4-fluoro-N-(2′-fluoro-4-(4-methyl-1,4-diazepan-1-yl)-5′-(morpholinomethyl)-[1,1′-biphenyl]-3-yl)-3,5-dimethylbenzamide]	394 nM	394 nM		
Cc1cc(C(=O)Nc2cc(-c3cc(CN4CCOCC4)ccc3F)ccc2N2CC3CN(C)CC3C2)cc(C)c1F (stereo not drawn) [Example 94, 4-fluoro-N-(2′-fluoro-4-(5-methylhexahydropyrrolo[3,4-c]pyrrol-2(1H)-yl)-5′-(morpholinomethyl)-[1,1′-biphenyl]-3-yl)-3,5-dimethylbenzamide]	> 200 nM	> 200 nM		
Cc1cc(C(=O)Nc2cc(-c3cc(CN4CCOCC4)ccc3F)ccc2N2CCN(CC(F)(F)F)CC2)cc(C)c1F [Example 95, 4-fluoro-N-(2′-fluoro-5′-(morpholinomethyl)-4-(4-(2,2,2-trifluoroethyl)piperazin-1-yl)-[,1′-biphenyl]-3-yl)-3,5-dimethylbenzamide]	> 200 nM	> 200 nM		
O=C(Nc1cc(-c2cc(CN3CCOCC3)ccc2F)ccc1N1CCN(CC(F)(F)F)CC1)c1c[nH]c(=O)cc1C(F)(F)F [Example 97, N-(2′-fluoro-5′-(morpholinomethyl)-4-(4-(2,2,2-trifluoroethyl)piperazin-1-yl)-[,1′-biphenyl]-3-yl)-6-oxo-4-(trifluoromethyl)-1,6-dihydropyridine-3-carboxamide]	> 200 nM	> 200 nM		
CN1CC2CN(c3ccc(-c4cc(CN5CCOCC5)ccc4F)cc3NC(=O)c3c[nH]c(=O)cc3C(F)(F)F)CC2C1 (stereo not drawn) [Example 100, N-(2′-fluoro-4-(5-methylhexahydropyrrolo[3,4-c]pyrrol-2(1H)-yl)-5′-(morpholinomethyl)-[1,1′-biphenyl]-3-yl)-6-oxo-4-(trifluoromethyl)-1,6-dihydropyridine-3-carboxamide]	5930 nM	5930 nM		
CN(C)C1CCN(c2ccc(-c3cc(CN4CCOCC4)ccc3F)cc2NC(=O)c2cn(C)c(=O)cc2C(F)(F)F)C1 (stereo not drawn) [Example 101, N-(4-(3-(dimethylamino)pyrrolidin-1-yl)-2′-fluoro-5′-(morpholinomethyl)-[1,1′-biphenyl]-3-yl)-1-methyl-6-oxo-4-(trifluoromethyl)-1,6-dihydropyridine-3-carboxamide]	2270 nM	2270 nM		
CN1CCN(c2ccc(-c3cc(CN4CCOCC4)ccc3F)cc2NC(=O)c2cc(F)cc3[nH]cnc23)CC1 [Example 102, 6-fluoro-N-(2′-fluoro-4-(4-methylpiperazin-1-yl)-5′-(morpholinomethyl)-[1,1′-biphenyl]-3-yl)-1H-benzo[d]imidazole-4-carboxamide]	> 200 nM	> 200 nM		
CN1CCN(c2ccc(-c3cc(CN4CCOCC4)ccc3F)cc2NC(=O)c2nc3ccccc3[nH]2)CC1 [Example 103, N-(2′-fluoro-4-(4-methylpiperazin-1-yl)-5′-(morpholinomethyl)-[1,1′-biphenyl]-3-yl)-1H-benzo[d]imidazole-2-carboxamide]	> 200 nM	> 200 nM		
C[C@H]1CN(C)CCN1c1ccc(-c2cc(CN3CCOCC3)ccc2F)cc1NC(=O)c1c[nH]c(=O)cc1C(F)(F)F [Example 104, (S)—N-(4-(2,4-dimethylpiperazin-1-yl)-2′-fluoro-5′-(morpholinomethyl)-[1,1′-biphenyl]-3-yl)-6-oxo-4-(trifluoromethyl)-1,6-dihydropyridine-3-carboxamide]	4000 nM	4000 nM		
CN1CCN(c2ccc(-c3cc(CN4CCOCC4)ccc3F)cc2NC(=O)c2ccc(=O)[nH]c2)CC1 [Example 105, N-(2′-fluoro-4-(4-methylpiperazin-1-yl)-5′-(morpholinomethyl)-[1,1′-biphenyl]-3-yl)-6-oxo-1,6-dihydropyridine-3-carboxamide]	1950 nM	1950 nM		
CC(=O)Nc1cc(C)c(C(=O)Nc2cc(-c3cc(CN4CCOCC4)ccc3F)ccc2N2CCN(C)CC2)cn1 [Example 106, 6-acetamido-N-(2′-fluoro-4-(4-methylpiperazin-1-yl)-5′-(morpholinomethyl)-[1,1′-biphenyl]-3-yl)-4-methylnicotinamide]	8.3 nM	829 nM	3.2 min	
COc1cc(C(F)(F)F)c(C(=O)Nc2cc(-c3cc(CN4CCN(CC5CC5)CC4)ccc3F)ccc2N2CCN(C)CC2)cn1 [Example 107, N-(5′-((4-(cyclopropylmethyl)piperazin-1-yl)methyl)-2′-fluoro-4-(4-methylpiperazin-1-yl)-[1,1′-biphenyl]-3-yl)-6-methoxy-4-(trifluoromethyl)nicotinamide]	> 200 nM	> 200 nM		
CNc1cc(C(F)(F)F)c(C(=O)Nc2cc(-c3cc(CN4CCOCC4)ccc3F)ccc2N2CCN(C)CC2)cn1 [Example 108, N-(2′-fluoro-4-(4-methylpiperazin-1-yl)-5′-(morpholinomethyl)-[1,1′-biphenyl]-3-yl)-6-(methylamino)-4-(trifluoromethyl)nicotinamide]	> 200 nM	> 200 nM		
CN1CCN(c2ccc(-c3cc(CN4CCOCC4)ccc3F)cc2NC(=O)c2cnc(N)cc2C(F)(F)F)CC1 [Example 109, 6-amino-N-(2′-fluoro-4-(4-methylpiperazin-1-yl)-5′-(morpholinomethyl)-[1,1′-biphenyl]-3-yl)-4-(trifluoromethyl)nicotinamide]	> 200 nM	> 200 nM		
C[C@@H]1CN(c2ccc(-c3ccc(F)c(CN(C)C4COC4)c3F)cc2NC(=O)c2c[nH]c(=O)cc2C(F)(F)F)C[C@H](C)N1C [Example 112, N-(2′,4′-difluoro-3′-((methyl(oxetan-3-yl)amino)methyl)-4-((3S,5R)-3,4,5-trimethylpiperazin-1-yl)-[1,1′-biphenyl]-3-yl)-6-oxo-4-(trifluoromethyl)-1,6-dihydropyridine-3-carboxamide]	23 nM	23 nM	1.3 min	
C[C@@H]1CN(c2ccc(-c3c(F)cc(CNC4CCCCC4)cc3F)cc2NC(=O)c2c[nH]c(=O)cc2C(F)(F)F)C[C@H](C)N1C [Example 115, N-(4′-((cyclohexylamino)methyl)-2′,6′-difluoro-4-((3S,5R)-3,4,5-trimethylpiperazin-1-yl)-[1,1′-biphenyl]-3-yl)-6-oxo-4-(trifluoromethyl)-1,6-dihydropyridine-3-carboxamide]	55 nM	55 nM	1.5 min	
C[C@@H]1CN(c2ccc(-c3ccc(C(N)=O)cc3F)cc2NC(=O)c2c[nH]c(=O)cc2C(F)(F)F)C[C@H](C)N1C [Example 117, N-(4′-carbamoyl-2′-fluoro-4-((3S,5R)-3,4,5-trimethylpiperazin-1-yl)-[1,1′-biphenyl]-3-yl)-6-oxo-4-(trifluoromethyl)-1,6-dihydropyridine-3-carboxamide]	1.7 nM	1.6 nM	7.9 min	
C[C@@H]1CN(c2ccc(-c3ccc(N4CCOCC4)cc3F)cc2NC(=O)c2c[nH]c(=O)cc2C(F)(F)F)C[C@H](C)N1C [Example 118, N-(2′-fluoro-4′-morpholino-4-((3S,5R)-3,4,5-trimethylpiperazin-1-yl)-[1,1′-biphenyl]-3-yl)-6-oxo-4-(trifluoromethyl)-1,6-dihydropyridine-3-carboxamide]		6 nM	7.2 min	5.6 nM
